Data: BindingDB's records for doi:10.1021/acs.jmedchem.0c01280 (Abbvie, 2021)

Test: Inhibition of TNFalpha in mouse L929 cells exposed to compound incubated for 1 hr with mouse TNFalpha by luminescence based assay

Row | IC50 [nM] | Compound
1 | 128 | CN1CCN(Cc2ccc(-c3c[nH]c4ccncc34)c(OCCc3ccc(-c4cccc5ccncc45)cc3)c2)CC1
2 | 146 | C[C@@H]1CN(c2ncc(-c3ccc4c(c3)N(Cc3ccccc3OC(F)F)C(C)(C)C4=O)cn2)CCN1C(=O)CO
3 | 119 | C[C@@H]1CN(c2ncc(-c3ccc4c(c3)N(Cc3cccnc3C#N)C(C)(C)C4=O)cn2)CCN1C(=O)CO
4 | 99 | CC1(C)C(=O)c2ccc(-c3cnc(N4CCN5C(=O)NC[C@@H]5C4)nc3)cc2N1Cc1cccnc1C#N
